# Results: patent US11390592B2, “Method for producing the crystalline form of modification a of calcobutrol” (BAYER PHARMA AKTIENGESELLSCHAFT, priority 2016, dated 2022)
# Tests used:
# Type in all cases: physicochemical
# [1] = Solubility in water of the polymorphic modifications
# [2] = Storage stability and hygroscopicity of the polymorphic forms; settings: solid
# [3] = Hygroscopic properties: exposure to ambient air, water content by Karl-Fischer titration; settings: ca. 20° C., ca. 60% rel. humidity
# Protocol: The hygroscopic properties of three different samples of Calcobutrol were determined, one sample was prepared by the method described in Inorganic Chemistry 1997, 36, 6086-6093 (Example 5), one sample was prepared by the method described in WO2011/054827A1 (Example 6), and one sample was prepared by the method according to the present invention (Example 2).
# 2 g of each sample were exposed to ambient air (ca. 20° C., ca. 60% rel. humidity). The water content was measured by means of Karl-Fischer-Titration immediately after initial exposure (t=0), three hours (t=3 h), seven hours (t=7 h), and thirty one hours (t=31 h) after initial exposure.
SMILES,Solubility in water [1],solubility in water (appearance) [1],storage stability [2],storage stability ([2]; listed as calcobutrol of modification A),"weight-% water t = 0 ([3]; 2 g exposed to ambient air, immediately after initial exposure)","weight-% water t = 7 h ([3]; ambient air, seven hours after initial exposure)","weight-% water t = 31 h ([3]; ambient air, thirty one hours after initial exposure)","weight-% water t = 3 h ([3]; ambient air, three hours after initial exposure)",hygroscopicity [2]
"O=C([O-])CN1CCN(CC(=O)[O-])CCN(C(CO)C(O)CO)CCN(CC(=O)O)CC1.[Ca+2] (stereo not drawn) [Modification A, calcium complex of dihydroxy-hydroxy-methylpropyl-tetraazacyclododecane-triacetic acid (calcobutrol)]",>500 mg/mL,colourlessly soluble in water,good storage stability,storage-stable,3.0%,4.3%,4.3%,4.5%,
"O=C([O-])CN1CCN(CC(=O)[O-])CCN(C(CO)C(O)CO)CCN(CC(=O)O)CC1.[Ca+2] (stereo not drawn) [Modification B, calcium complex of dihydroxy-hydroxy-methylpropyl-tetraazacyclododecane-triacetic acid (calcobutrol)]",,,,,,,,,to a large extent tend to be hygroscopic
